# Measured values taken from paper PMC10057847, “Precision engineering of biological function with large-scale measurements and machine learning” (PLOS ONE, 2023).
# “And” between values parts separate entries of the source, which are not always exact repeats. Equal entries are not always repeated.
# Legend:
# Experiment in all cases: In vivo IPTG dose-response of LacI-regulated eYFP expression from the pVER plasmid in E. coli grown in rich M9 medium at 37 °C, measured by flow cytometry and fitted to the Hill equation by Bayesian MCMC (posterior mean and SD).
# Format in all cases: cell-based, E. coli MG1655Δlac
# Settings in all cases: read-out: log_ec50 (base-10 logarithm of EC50 in μmol/L) (converted)
# [1] = target: T1, pVER-IPTG-075 (also pVER-IPTG-138) (Escherichia coli, UniProt P03023, A81S/E100K/L148V/Q60R/S221N/S28G/T34M/V271L)
# T1 construct: gene lacI; LacI expressed from pVER plasmid
# T1 sequence (P03023 whole entry S28G/T34M/Q60R/A81S/E100K/L148V/S221N/V271L): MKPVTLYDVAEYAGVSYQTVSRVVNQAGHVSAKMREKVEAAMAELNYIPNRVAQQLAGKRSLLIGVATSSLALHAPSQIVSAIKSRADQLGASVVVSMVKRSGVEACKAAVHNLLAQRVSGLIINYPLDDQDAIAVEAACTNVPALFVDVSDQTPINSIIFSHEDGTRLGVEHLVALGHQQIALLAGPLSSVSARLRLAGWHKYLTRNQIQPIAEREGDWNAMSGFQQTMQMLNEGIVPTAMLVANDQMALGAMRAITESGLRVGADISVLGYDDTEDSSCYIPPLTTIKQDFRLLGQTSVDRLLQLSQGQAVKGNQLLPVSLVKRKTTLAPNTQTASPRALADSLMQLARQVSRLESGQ
# Method: (§1) All reported measurements were completed using E. coli strain MG1655Δlac, in which the lactose operon of E. coli strain MG1655 (ATCC #47076) was replaced with the bleomycin resistance gene from Streptoalloteichus hindustanus (Shble).
# (§2) Dose-response curves were measured with flow cytometry using E. coli MG1655Δlac transformed with variants of the pVER plasmid, described previously. The plasmid contained different variants of the lacI coding DNA sequence (CDS), as described in the text, and an expression cassette with enhanced yellow fluorescent protein (eYFP) under the control of the lactose operator (lacO). The lacI CDS was verified with Sanger sequencing for each variant.
# (§3) All cultures were grown in a rich M9 media (3 g/L KH2PO4, 6.78 g/L Na2HPO4, 0.5 g/L NaCl, 1 g/L NH4Cl, 0.1 mmol/L CaCl2, 2 mmol/L MgSO4, 4% glycerol, and 20 g/L casamino acids) supplemented with 50 μg/mL kanamycin.
# (§4) • Prepare first growth plate, with 450 μL rich M9 media in each well. • Pipette 50 μL of starter culture into each well in rows B-G of the plate (leaving rows A and H blank). • Use a E. coli containing a different lacI variant for each row. • Seal first growth plate with gas permeable membrane. • Incubate plate in plate reader for 12 h to 14 h. • Grow to stationary to provide a reproducible starting point for each measurement. • Prepare second growth plate with 490 μL in each well. • Dilution series of isopropyl-β-D-thiogalactopyranoside (IPTG): 11 columns of a 2-fold serial dilution gradient and one column with zero IPTG. • Ten minutes before the end of the incubation cycle for the first growth plate, move the second growth plate to a heated station set to 47°C. • Ten minutes at 47°C will pre-warm the media in the plate to 37°C. • De-seal the first growth plate (after completion of the stationary-phase incubation cycle). • Pipette 10 μL from each well in the first growth plate to the corresponding well in the second growth plate. • 50-fold dilution; using a 96-channel pipetting head. • Seal second growth plate with gas permeable membrane. • Incubate second growth plate in plate reader for 160 minutes. • Sufficient for approximately 10-fold increase in cell density or 3.3 doublings. • Prepare third growth plate with 450 μL in each well. • Same dilution series as in second growth plate. • Ten minutes before the end of the incubation cycle for the second growth plate, move the third growth plate to a heated station set to 47°C. • De-seal the second growth plate (after completion of the 160 minute incubation cycle). • Pipette 50 μL from each well in the second growth plate to the corresponding well in the third growth plate. • 10-fold dilution; using a 96-channel pipetting head. • Seal third growth plate with gas permeable membrane. • Incubate third growth plate in plate reader for 160 minutes. • Prepare flow cytometry sample plate (round-bottom 96-well plate, Falcon, 351177). • Each well in rows B-G: 195 μL 1x PBS with 170 μg/mL chloramphenicol (Fisher BioReagents, cat. #BP904-100). • Rows A and H: PBS blanks, focusing fluid blanks, and space for calibration bead sample • At the end of the incubation cycle for the third growth plate, pipette 5 μL from each well to the corresponding well in the flow cytometry sample plate.
# (§5) Flow cytometry samples were measured with an Attune NxT flow cytometer equipped with a 96-well plate autosampler using a 488 nm excitation laser and a 530 nm ± 15 nm bandpass emission filter. Blank samples were measured with each batch of cell measurements, and an automated gating algorithm was used to discriminate cell events from non-cell events. Fluorescence calibration beads (Spherotech, part no. RCP-30-20A) were also measured with each batch of samples to facilitate calibration of flow cytometry data to molecules of equivalent fluorescein (MEF). […]
# pVER-IPTG-008 = target: T2, pVER-IPTG-008 (Escherichia coli, UniProt P03023, A266T/I237T/I289F/S61L/T258S)
# T2 construct: gene lacI; LacI expressed from pVER plasmid; stop codon at 351
# T2 sequence (P03023 1-350 S61L/I237T/T258S/A266T/I289F): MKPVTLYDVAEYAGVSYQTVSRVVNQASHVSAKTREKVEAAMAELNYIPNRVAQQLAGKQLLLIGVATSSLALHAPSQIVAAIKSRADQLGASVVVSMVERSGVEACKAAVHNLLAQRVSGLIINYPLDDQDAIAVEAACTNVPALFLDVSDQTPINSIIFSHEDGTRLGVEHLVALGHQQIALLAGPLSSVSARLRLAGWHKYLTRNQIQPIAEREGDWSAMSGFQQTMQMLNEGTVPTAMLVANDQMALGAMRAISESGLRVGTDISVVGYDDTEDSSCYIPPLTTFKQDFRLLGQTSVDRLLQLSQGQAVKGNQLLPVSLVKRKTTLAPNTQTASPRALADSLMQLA
# Method: as §1, §2, §3, §4, §5
# pVER-IPTG-076 = target: T3, pVER-IPTG-076 (Escherichia coli, UniProt P03023, A337S/L198Q/S102R/S260F/S93N/V99E)
# T3 construct: gene lacI; LacI expressed from pVER plasmid
# T3 sequence (P03023 whole entry S93N/V99E/S102R/L198Q/S260F/A337S): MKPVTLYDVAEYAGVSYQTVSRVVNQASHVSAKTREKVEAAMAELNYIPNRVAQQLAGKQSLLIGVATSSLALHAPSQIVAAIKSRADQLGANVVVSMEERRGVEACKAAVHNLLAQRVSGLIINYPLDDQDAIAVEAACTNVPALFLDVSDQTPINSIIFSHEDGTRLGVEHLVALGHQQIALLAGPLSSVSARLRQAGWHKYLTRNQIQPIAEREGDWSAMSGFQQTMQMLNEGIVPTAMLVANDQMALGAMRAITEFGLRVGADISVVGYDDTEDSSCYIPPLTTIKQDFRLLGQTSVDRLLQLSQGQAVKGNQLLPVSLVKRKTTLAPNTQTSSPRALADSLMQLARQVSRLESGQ
# Method: as §1, §2, §3, §4, §5
# pVER-IPTG-081 = target: T4, pVER-IPTG-081 (Escherichia coli, UniProt P03023, M347V/P285S/S308P/V301M)
# T4 construct: gene lacI; LacI expressed from pVER plasmid
# T4 sequence (P03023 whole entry P285S/V301M/S308P/M347V): as the sequence (P03023 whole entry S93N/V99E/S102R/L198Q/S260F/A337S) above, with N93S, E99V, R102S, Q198L, F260S, P285S, V301M, S308P, S337A, M347V counted along it
# Method: as §1, §2, §3, §4, §5
# pVER-IPTG-007 = target: T5, pVER-IPTG-007 (Escherichia coli, UniProt P03023, A199V/D88Y/K84E/L342M/L90P/Q153L/R351P/S358R)
# T5 construct: gene lacI; LacI expressed from pVER plasmid
# T5 sequence (P03023 whole entry K84E/D88Y/L90P/Q153L/A199V/L342M/R351P/S358R): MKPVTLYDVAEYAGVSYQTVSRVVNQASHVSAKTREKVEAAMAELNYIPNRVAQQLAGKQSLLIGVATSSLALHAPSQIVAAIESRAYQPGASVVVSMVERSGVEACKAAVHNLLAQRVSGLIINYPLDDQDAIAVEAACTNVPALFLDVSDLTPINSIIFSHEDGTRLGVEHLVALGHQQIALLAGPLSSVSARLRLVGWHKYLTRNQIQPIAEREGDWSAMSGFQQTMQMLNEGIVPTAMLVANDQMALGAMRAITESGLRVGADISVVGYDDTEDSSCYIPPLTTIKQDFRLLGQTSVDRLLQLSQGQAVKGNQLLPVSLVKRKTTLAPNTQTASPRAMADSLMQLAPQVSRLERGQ
# Method: as §1, §2, §3, §4, §5
# pVER-IPTG-003 = target: T6, pVER-IPTG-003 (Escherichia coli, UniProt P03023, A337V/G200V/H74Y/K290R/L262M/Q306H/R207H/V119I/V52M)
# T6 construct: gene lacI; LacI expressed from pVER plasmid; stop codon at 352
# T6 sequence (P03023 1-351 V52M/H74Y/V119I/G200V/R207H/L262M/K290R/Q306H/A337V): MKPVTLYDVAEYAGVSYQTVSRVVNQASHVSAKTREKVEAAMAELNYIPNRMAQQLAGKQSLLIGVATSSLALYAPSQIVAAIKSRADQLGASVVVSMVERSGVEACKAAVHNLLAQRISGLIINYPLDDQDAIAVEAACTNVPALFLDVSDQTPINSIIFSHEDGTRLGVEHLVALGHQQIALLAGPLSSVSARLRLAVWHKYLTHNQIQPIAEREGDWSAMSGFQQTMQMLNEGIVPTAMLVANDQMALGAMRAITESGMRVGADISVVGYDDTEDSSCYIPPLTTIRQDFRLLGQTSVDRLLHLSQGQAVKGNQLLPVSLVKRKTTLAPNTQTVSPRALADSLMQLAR
# Method: as §1, §2, §3, §4, §5
# pVER-IPTG-002(V80L) = target: T7, pVER-IPTG-002(V80L) (Escherichia coli, UniProt P03023, M254I/S158R/T154I/V238D/V264I/V80L/V96E)
# T7 construct: gene lacI; LacI expressed from pVER plasmid
# T7 sequence (P03023 whole entry V80L/V96E/T154I/S158R/V238D/M254I/V264I): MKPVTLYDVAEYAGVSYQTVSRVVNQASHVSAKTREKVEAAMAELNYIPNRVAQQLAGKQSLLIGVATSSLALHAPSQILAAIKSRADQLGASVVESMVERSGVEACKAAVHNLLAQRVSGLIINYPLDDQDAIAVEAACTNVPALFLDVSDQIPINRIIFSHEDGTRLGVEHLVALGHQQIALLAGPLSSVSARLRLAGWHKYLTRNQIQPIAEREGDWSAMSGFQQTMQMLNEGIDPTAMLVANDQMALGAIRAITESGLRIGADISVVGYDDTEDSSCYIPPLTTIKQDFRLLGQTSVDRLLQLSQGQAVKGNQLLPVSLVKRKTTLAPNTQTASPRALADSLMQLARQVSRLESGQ
# Method: as §1, §2, §3, §4, §5
# pVER-IPTG-009 = target: T8, pVER-IPTG-009 (Escherichia coli, UniProt P03023, I210L/I283N/M254T/N157D/P76Q/Q181H/V150A)
# T8 construct: gene lacI; LacI expressed from pVER plasmid
# T8 sequence (P03023 whole entry P76Q/V150A/N157D/Q181H/I210L/M254T/I283N): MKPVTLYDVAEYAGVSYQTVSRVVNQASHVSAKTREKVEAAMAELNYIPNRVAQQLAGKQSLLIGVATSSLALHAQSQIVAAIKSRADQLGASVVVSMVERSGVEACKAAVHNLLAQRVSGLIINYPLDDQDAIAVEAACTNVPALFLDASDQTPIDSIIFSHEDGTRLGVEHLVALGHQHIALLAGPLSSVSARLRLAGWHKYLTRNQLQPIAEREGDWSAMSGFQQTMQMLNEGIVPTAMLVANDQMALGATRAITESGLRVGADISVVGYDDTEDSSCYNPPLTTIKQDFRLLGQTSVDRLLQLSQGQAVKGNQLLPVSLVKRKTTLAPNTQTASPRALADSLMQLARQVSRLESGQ
# Method: as §1, §2, §3, §4, §5
# pVER-IPTG-004 = target: T9, pVER-IPTG-004 (Escherichia coli, UniProt P03023, A87P/E357G/V301M)
# T9 construct: gene lacI; LacI expressed from pVER plasmid
# T9 sequence (P03023 whole entry A87P/V301M/E357G): as the sequence (P03023 whole entry S93N/V99E/S102R/L198Q/S260F/A337S) above, with A87P, N93S, E99V, R102S, Q198L, F260S, V301M, S337A, E357G counted along it
# Method: as §1, §2, §3, §4, §5
# pVER-IPTG-005 = target: T10, pVER-IPTG-005 (Escherichia coli, UniProt P03023, A176S/E172D/F226Y/G91D/R101G/S158C/T167M/T276S/T299A/V94A)
# T10 construct: gene lacI; LacI expressed from pVER plasmid
# T10 sequence (P03023 whole entry G91D/V94A/R101G/S158C/T167M/E172D/A176S/F226Y/T276S/T299A): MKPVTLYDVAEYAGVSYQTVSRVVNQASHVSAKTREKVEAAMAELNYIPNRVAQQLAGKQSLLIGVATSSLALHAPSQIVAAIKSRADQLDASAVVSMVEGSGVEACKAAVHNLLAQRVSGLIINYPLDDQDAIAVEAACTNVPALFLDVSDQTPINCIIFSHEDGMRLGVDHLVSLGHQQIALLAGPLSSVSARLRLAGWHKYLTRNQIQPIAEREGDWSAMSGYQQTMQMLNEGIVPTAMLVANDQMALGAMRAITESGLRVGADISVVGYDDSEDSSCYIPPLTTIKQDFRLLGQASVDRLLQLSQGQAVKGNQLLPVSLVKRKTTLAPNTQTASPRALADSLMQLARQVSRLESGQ
# Method: as §1, §2, §3, §4, §5
# pVER-IPTG-080 = target: T11, pVER-IPTG-080 (Escherichia coli, UniProt P03023, A109E/D165V/E259G/G166A/R255C)
# T11 construct: gene lacI; LacI expressed from pVER plasmid
# T11 sequence (P03023 whole entry A109E/D165V/G166A/R255C/E259G): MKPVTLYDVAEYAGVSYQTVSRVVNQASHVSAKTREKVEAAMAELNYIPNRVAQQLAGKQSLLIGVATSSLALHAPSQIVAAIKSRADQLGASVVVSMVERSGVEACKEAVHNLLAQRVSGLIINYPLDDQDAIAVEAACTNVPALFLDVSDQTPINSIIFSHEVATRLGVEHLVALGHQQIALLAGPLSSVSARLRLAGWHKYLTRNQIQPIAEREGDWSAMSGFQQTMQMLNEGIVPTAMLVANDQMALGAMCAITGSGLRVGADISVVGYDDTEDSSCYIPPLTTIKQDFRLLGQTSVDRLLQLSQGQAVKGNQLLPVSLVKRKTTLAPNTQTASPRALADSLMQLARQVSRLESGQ
# Method: as §1, §2, §3, §4, §5
smiles,measurement,setting,value
"CC(C)S[C@@H]1O[C@H](CO)[C@H](O)[C@H](O)[C@H]1O [IPTG, isopropyl-β-D-thiogalactopyranoside]",EC50,[1],3 µmol/L and 2.99 µmol/L
same,EC50,pVER-IPTG-008,77.3 µmol/L
same,EC50,pVER-IPTG-076,4.31 µmol/L
same,EC50,pVER-IPTG-081,8.46 µmol/L
same,EC50,pVER-IPTG-007,29.4 µmol/L
same,EC50,pVER-IPTG-003,162 µmol/L
same,EC50,pVER-IPTG-002(V80L),47.7 µmol/L
same,EC50,pVER-IPTG-009,169 µmol/L
same,EC50,pVER-IPTG-004,234 µmol/L
same,EC50,pVER-IPTG-005,203 µmol/L
same,EC50,pVER-IPTG-080,6.96 µmol/L
